The values below come from patent US20250223559A1, “AXIOLOID: A STEM CELL-BASED MODEL OF HUMAN AXIAL DEVELOPMENT” (KYOTO UNIVERSITY, priority 2022, published 2025).

For experiment [1], the system named is axioloids from human iPS cells. The experiment can be described thus: Axioloid induction and morphogenesis with alternative media, factor concentrations, ECM compounds and retinoid agonist. The class given is cell-based. Here is the method:
Human iPS cell lines derived from healthy donors, e.g. 409B2 were used in this study. Human iPS cells were maintained in StemFit AK02N (Reprocell) medium supplemented with 50 U penicillin and […] streptomycin (Gibco) on iMatrix-511 silk-coated plates or dishes (Nippi). StemFit AK02N (Reprocell) medium contains three components, A, B and C, all three of which were mixed and used for standard maintenance culture of human iPS cells in humidified incubators at 37° C. and 5% CO2. Used iPS cells were regularly tested and reported negative for mycoplasma contamination.
Based on the axioloid protocol it was explored if alternative compounds, molecules or inhibitors could be used and would support the generation of axioloids from PSCs. It was started by testing if NDiff227 (Takara, Cat: Y40002) medium or RPMI 1640 (Nacalai, Cat: 30264-85) supplemented with B27 either with (Gibco, Cat: 17504-044) or without (in house) retinol could be used as an alternative to AK02N-C induction media. The effects of different concentrations of bFGF (from 5 to 250 ng ml-1), or CHIR99021 (from 2.5 to 10 μM), or SB431542 (from 1.25 to 15 μM) were then tested on axioloid morphology. It was also tested if another member of the FGF superfamily: FGF8b (PeproTech, Cat: 100-25) (from 20 to 250 ng ml^−1) or another TGFβ inhibitor A83-01 (Selleck Chemicals, Cat: S7692) (from 1.25 to 15 μM) could have similar results as described for bFGF and SB431542. Finally, during the embedding phase it was tested if the alternative ECM containing compounds Geltrex (Gibco, Cat: A14132-0), Cultrex (R&D Systems, Cat: 3433-005-01), and ECMgel (Sigma-Aldrich, Cat: E6909) could be used instead of Matrigel and would support axioloid morphogenesis. It was also assessed whether a synthetic RA selective agonist, TTNPB (4-[(E)-2-(5,6,7,8-Tetrahydro-5,5,8,8-tetramethyl-2-naphthalenyl)-1-propenyl]benzoic acid) (Selleck Chemicals, Cat: S4627) could replace vitamin A derivatives such as retinol or retinal.
The generation of a mesoderm-based human induced pluripotent stem cell (iPSC)-derived 3D model of human axial development was recently reported, which is termed ‘axioloids’. […] This was then followed by a 3D aggregation step in the presence of bFGF and CHIR (same concentrations as during 1st step) in addition to 10 μM of SB431542 (TGFβ inhibitor) and 10 μM of Y-27632 (ROCK inhibitor). This step aimed at promoting the commitment of the initial primitive streak cells to a presomitic or paraxial mesoderm (PSM) fate. Formed mesodermal aggregates spontaneously broke symmetry and started elongating and adopted an initial ‘bean-like’ morphology.

The subject of the next experiment is human Axioloids. As to the kind of experiment: Axioloid morphogenesis during Matrigel embedding phase (brightfield live imaging, length, segment and somite quantification). The class given is cell-based. Here is the method:
Human iPS cells were seeded on iMatrix-511 silk (Nippi) coated dishes at a density of 1.3×10^4 cells/well into 6 well plates 5 days prior to Axioloid induction and used at 60% confluency. All subsequent induction steps were performed in AK02N (Reprocell) medium without component C (AK02N-C). Initially, hiPSCs were pulsed with a strong mesoderm and primitive streak fate inducing combination of bFGF (20 ng ml-1) and WNT agonist CHIR99021 (5 μM) for 24 h. CHIR99021 concentration may need to be adjusted depending on the used iPSC line, but remains usually in the range of 3-5 μM. 24 h after the initial pulse, cells were dissociated with Accutase (Thermo Fisher Scientific) and cultured for 24 h in 96-well U-bottom low attachment plates (Sumilon) at 500 cells/well in 50 μl of AK02N—C based aggregation medium supplemented with CHIR99021 (5 μM), basic FGF (20 ng ml^1), TGFβ inhibitor SB431542 (10 μM) and ROCK inhibitor Y27632 (10 μM). 24 h after aggregation, 150 μl of AK02N-C medium was added into each well and exchanged again after 24 h with 150 μl of fresh AK02N-C medium. 48 h after aggregation Axioloids were transferred one-by-one into BSA-treated 96-well flat-bottom low attachment plates (Watson) and embedded into 80 μl of AK02N-C medium containing 10% growth factor-reduced Matrigel (Corning) and cultured further at 37° C. and 5% CO2 for 24 to 48 h. Depending on the experimental setup Retinoic Acid signaling molecules, i.e. Retinoic Acid (RA) (100 nM), Retinol (ROL) (10 μM) or all trans-Retinal (RAL) (1 μM) were added to the MG containing medium throughout the embedding phase. Small molecule inhibitors of FGF (PD173074 (250 nM)), WNT (XAV939 (2 μM)), RA (BMS493 (2.5 μM)) and Notch (DAPT (25 μM)) signaling were also added during the embedding phase and their effects on Axioloids assessed accordingly. For details of the used recombinant human proteins, small molecule agonists and inhibitors, please see Supplementary Table 1. […]
Periodicity of segmentation was quantified from brightfield live-cell imaging data obtained with an inverted Ti2 microscope system (Nikon) using PlanApo λ 10× objective. […]
Quantification of length or intensity based on imaging data was performed using Fiji^57. Rostrocaudal length of formed segments was quantified from a center plane in z-stack images of Phalloidin-stained Axioloids. The longitudinal axes of Axioloids were measured on bright field images using Segmented Line tool. For quantifying fluorescent intensity of HCR or IHC staining, first, maximum intensity z projection images were created from multi-channel z-stack confocal images, then intensity of each channel was quantified along the longitudinal axis of Axioloids by Segmented Line tool, with a line width which corresponds to approximately 80% of the lateral length of Axioloids. […]

Experiment [2] relates to segmentation clock gene HES7. The experiment can be described thus: HES7:Luciferase reporter oscillation of the segmentation clock in Axioloids. The class given is cell-based, human. Particulars: for oscillatory activity of the segmentation clock gene HES7: signaling inhibitor added to MG+RAL. Here is the method: Bioluminescence live-cell imaging of HES7-reporter (201B7Luc) iPSC-derived human Axioloids (201B7Luc) was performed and signal was quantified as previously described^55,56 Briefly, one day before imaging glass-bottom 96-well plates (Iwaki) were coated with 50 μl of 1.5% PVA (Nacalai), the PVA solution was hereby aspirated and the plates dried on top of a clean bench overnight at room temperature. Prior to imaging, Axioloids were set onto coated glass-bottom 96-well plates with 80 μl of AK02N-C medium containing […] D-Luciferin and 10% Matrigel. Small molecule agonists and antagonists of signaling pathways were added according to the experimental setup. Bioluminescence signals of Axioloids induced from the HES7-reporter cell line were recorded on IX83 (Olympus) equipped with iXon EMCCD camera (Andor) cultured in a stage top incubator (Tokai Hit). Signal was acquired with 2×2 binning and 1 min exposure. Cosmic rays were removed from the raw images by applying spike noise filter, then smoothed by median filter. Temporal fluctuation of signal baseline was corrected by background subtraction. Kymograph was generated by averaging luminescence intensity values along the lateral axis of Axioloids and resulted values were aligned in temporal order.
Periodicity of HES7 oscillation was quantified from time-series luminescence intensity data obtained from either live imaging or Kronos HT (Atto) measurements using HES7 reporter-derived Axioloids. For Kronos HT based oscillation measurements, Axioloids were transferred at 72 h (48 h after aggregation) into 24-well film-bottom plates (Eppendorf) covered in 400 μl of embedding medium (+/−MG) supplemented with D-Luciferin (100 μM) (bioWORLD). Axioloid containing culture plates were cultured at 37° C. and 5% CO2. Oscillations were measured for 48 hours and each well was measured for 10 seconds with 8 min intervals. Intensity values were processed using Matlab. Temporal trend was obtained by subtracting moving average (window size of 10 h), and the detrended signal was smoothed by Savitzky-Golay filter (window size of 3 h). Instantaneous oscillation phase was calculated by applying Hilbert transform, then peak detection was performed on cosine values of instantaneous oscillation phase. Peak-to-peak period was then quantified on each n-th oscillation.

The subject of experiment [3] is axioloids from human iPS cells. Particulars: Yamanaka, Hamidi et al., Nature 2023; cited from earlier work.

SMILES strings stand for the structures. Values joined by “and” are separate entries in the source; they are usually repeats but may differ in a detail not shown here. Identical values can stand only once. “Also recorded” adds a separate entry of the source.

Take `Cc1cccc(-c2nn(C(=S)Nc3ccccc3)cc2-c2ccnc3ccccc23)n1` [A-83-01]: in experiment [1], the “concentration giving best results” value was 1.25 µM and 2.5 µM; the “substitution for the standard component (bFGF or SB431542)” value is recorded as “can be used as an alternative to SB431542”. Besides, the axioloid morphogenesis entry in experiment [1] (different concentrations (1.25 to 15 μM)) was “recapitulate hallmarks of proper axioloids morphogenesis”.
In the case of `CC1(C)CC=C(C#Cc2ccccc2)c2cc(/C=C/c3ccc(C(=O)O)cc3)ccc21` [BMS493], the “somite formation and epithelialization” value in the experiment on human Axioloids (BMS493 (2.5 μM) added to MG+RAL) is “strongly inhibiting somite formation and epithelialization; also recorded: clear detrimental effect”. The “overall length of Axioloids” value in the experiment with human Axioloids (signaling inhibitor added to MG+RAL during embedding phase) was “remained stable”. Also, the “oscillatory activity of the segmentation clock gene HES7” value in experiment [2] is “no effect”.
As to `Cc1c[nH]c(-c2cnc(NCCNc3ccc(C#N)cn3)nc2-c2ccc(Cl)cc2Cl)n1` [CHIR99421, 6-[2-[4-(2,4-Dichlorophenyl)-5-(4-methyl-1H-imidazol-2-yl)pyrimidin-2-ylamino]ethylamino]pyridine-3-carbonitrile], in experiment [1], the “concentration that might work for most PSC lines” value is “around 5 μM” and the “influence of concentration on success of axioloid generation” value was “most critical factor determining the overall success rate of axioloid generation”. Besides, the “axioloid induction and morphology” value in experiment [1] (2 μM or 2.5 μM) is listed as “round cellular aggregates with no sign of symmetry breaking or elongation”. In addition, the “axioloid induction and morphology” value in experiment [1] (3 μM) was “formation of elongated neural tube-like structures”. Besides, in experiment [1] (7.5 μM or 10 μM), the overall axioloid length entry was “some negative impact on overall axioloid length” and the overall axioloid morphology result is on record as “no dramatic effect on overall axioloid morphology”. Besides, the “dependence of outcome on cell line” value in experiment [1] (CHIR concentrations during induction) is recorded as “variable outcomes depending on the utilized cell line”. Besides, in experiment [1] (initial 2D induction with both bFGF (20 ng/ml) and […] (5 µM)), the “formation of primitive streak-like cells from human PSCs” value was “efficiently and reproducibly promoted the formation of primitive streak-like cells”. The “requirement for proper axioloid induction” value in experiment [3] was “necessary and sufficient”.
As to `C[C@H](NC(=O)Cc1cc(F)cc(F)c1)C(=O)N[C@H](C(=O)OC(C)(C)C)c1ccccc1` [DAPT], the “oscillatory activity of the segmentation clock gene HES7” value in experiment [2] is “quick damping and loss of oscillatory activity”.
For the compound `CC1=C(/C=C/C(C)=C/C=C/C(C)=C/CO)C(C)(C)CCC1` [ROL, Retinol], the “stability and epithelialization of forming segments” value in the experiment with human Axioloids (added during MG embedding phase 72 h-120 h (RA 100 nM, ROL 10 μM, RAL 1 μM), 96 h and 120 h) is “dramatic improvement of the stability and epithelialization of forming segments”. Further, the “oscillatory activity including periodicity of HES7” value in experiment [2] (RA, RAL or ROL, with or without MG) is given as “largely no effect”.
Turning to `NC(=O)c1ccc(-c2nc(-c3ccc4c(c3)OCO4)c(-c3ccccn3)[nH]2)cc1` [SB431542, 4-(4-(benzo[d][1,3]dioxol-5-yl)-5-(pyridine-2-yl)-1H-imidazol-2-yl)benzamide], the “activity over concentrations for axioloid induction” value in experiment [1] (1.25 to 15 μM tested) is “active and effective over a large range of concentrations”. Further, the “requirement for proper axioloid induction” value in experiment [3] is “necessary and sufficient”.
On to `C/C(=C\c1ccc(C(=O)O)cc1)c1ccc2c(c1)C(C)(C)CCC2(C)C` [TTNPB, 4-[(E)-2-(5,6,7,8-Tetrahydro-5,5,8,8-tetramethyl-2-naphthalenyl)-1-propenyl]benzoic acid], for which, in experiment [1] (10% MG), the “axioloid morphology and somite epithelialization compared with ROL, RAL, RA” value was “overall similar effect on axioloid morphology and somite epithelialization”; the replacement of retinoids entry is on record as “could be used in replacement of retinoids”.
